# What was measured:
# Type in all cases: biochemical
# [1] = target: T1, Rat liver microsomal squalene synthase (Rattus norvegicus, UniProt Q02769); assay: In vitro Inhibition of Squalene Synthase (rat liver microsomal, radioactive farnesyl diphosphate substrate); conditions: rat liver microsomes
# T1 construct: Rat liver microsomes, the source of enzyme, were prepared; from tissue; host or cells: rat liver microsomes
# T1 sequence (Q02769 1-416): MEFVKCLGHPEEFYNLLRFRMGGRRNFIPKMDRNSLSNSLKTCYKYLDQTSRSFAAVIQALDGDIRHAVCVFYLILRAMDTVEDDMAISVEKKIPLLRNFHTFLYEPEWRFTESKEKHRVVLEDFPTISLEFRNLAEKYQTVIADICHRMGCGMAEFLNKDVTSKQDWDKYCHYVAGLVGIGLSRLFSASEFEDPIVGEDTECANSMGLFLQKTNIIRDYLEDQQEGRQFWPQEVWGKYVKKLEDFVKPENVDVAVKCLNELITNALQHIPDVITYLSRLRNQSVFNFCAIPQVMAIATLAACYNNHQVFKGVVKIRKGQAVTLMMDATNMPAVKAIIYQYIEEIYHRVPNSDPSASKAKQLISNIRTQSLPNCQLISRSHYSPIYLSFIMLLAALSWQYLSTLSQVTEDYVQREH
# Method: In vitro inhibition of squalene synthase may be measured by the following procedure.
# Rat liver microsomal squalene synthase activity was measured using radioactive farnesyl diphosphate as a substrate and quantitating squalene synthesis by counting the radioactive squalene formed.
# Rat liver microsomes, the source of enzyme, were prepared according to the method of Gillies, P. J., et al., Exp. Molc. Pathol. 44: 329-339 (1986), a modification of the procedure of Erickson, S. K., and Cooper, A. D., Metabolism, 29: 991-996 (1980). Approximately 30 μg of microsomal protein was incubated for 10 minutes at 37° C. with […] of ^3 H-farnesyl diphosphate, 49 mCi/mmol, and test compound in the presence of squalene (2 μL), Mg++, KF, reduced B-nicotinamide adenine dinucleotide phosphate, dithiothreitol, and K2 PO4, pH 7.35, in a total volume of 200 μL. Oxygen was excluded from the closed incubation tube by degassing with nitrogen. The reaction was terminated by the addition of ethanolic KOH and after degassing with N2, the microsomal membranes were solubilized by heating at 60° C. for 30 minutes. The squalene was extracted into hexane, and the squalene was separated from all other radioactive molcules by passage over an activated alumina column. The solution was collected in scintillation vials, evaporated to dryness, liquid scintillation fluid was added, and the radioactivity was determined in a liquid scintillation counter. The percent inhibition at a dose of 1 μM compared to controls with no test compound was determined.
# [2] = target: T2, Rat brain protein farnesyltransferase (Rattus norvegicus, UniProt Q02293+Q04631); assay: In vitro Inhibition of Protein Farnesyltransferase (scintillation proximity assay, biotin-K Ras B fragment); conditions: rat brain enzyme
# T2 construct: Rat brain protein farnesyltransferase activity was measured; from tissue; host or cells: rat brain; partially purified by steps one through three of Reiss et al., Cell 62:81-88 (1990)
# Method: In vitro inhibition of protein farnesyltransferase may be measured by the following procedure. (Procedures for determination of the inhibition of farnesylation of the oncogene protein Ras are described by Goldstein, et al., J. Biol. Chem., 266:15575-15578 (1991) and by Singh in U.S. Pat. No. 5,245,061 both of which are incorporated herein by reference.)
# Rat brain protein farnesyltransferase activity was measured using an Amersham Life Science commercial scintillation proximity assay kit and substituting a biotin-K Ras B fragment (biotin-Lys-Lys-Ser-Lys-Thr-Lys-Cys-Val-lle-Met-CO2 H), 0.1 μM final concentration, for the biotin-lamin substrate provided by Amersham. The enzyme was purified according to Reiss, Y., et al., Cell, 62:81-88 (1990), utilizing steps one through three. The specific activity of the enzyme was approximately 10 nmol substrate farnesylated/mg enzyme/hour. […]
# [3] = target: T1, Rat liver microsomal squalene synthase; assay: In vitro Inhibition of Squalene Synthase (rat liver microsomal, radioactive farnesyl diphosphate substrate); conditions: 0.15 μM (footnote *); rat liver microsomes
inhibition at 1 µM [2] [%],inhibition at 1 µM [1] [%],SMILES,further results
–,–,"C[C@H](NC(=O)C1CC(CO)C1C(=O)[O-])[C@H](Cc1ccc(Cl)cc1)c1ccc(-c2ccccc2)cc1.[Na+] (mixture of isomers) [Example 41, (±)-(1α,2β,4α)-2-[N-{(2S,3R)-4-(4-Chlorophenyl)-3-(4-biphenylyl)-2-butyl}aminocarbonyl]-4-hydroxymethylcyclobutane-1-carboxylic acid sodium salt]",% Inhibition at 1 μM [1]: 80%
45,–,"O=C(OCc1ccccc1)[C@@H]1[C@H](C(=O)O)[C@@H](C(=O)OCc2ccccc2)[C@H]1C(=O)N(Cc1ccccc1)Cc1ccc(Oc2ccccc2)cc1 (relative stereo) [Example 3, (1α,2β,3β,4α)-1-[N-Benzyl-N-(4-phenoxybenzyl)aminocarbonyl]-2,4-di(benzyloxycarbonyl)cyclobutane-3-carboxylic acid]",–
99,–,"O=C(O)[C@@H]1[C@H](C(=O)O)[C@@H](C(=O)O)[C@H]1C(=O)N(Cc1ccccc1)Cc1ccc(Oc2ccccc2)cc1 (relative stereo) [Example 4, (1α,2β,3β,4α)-1-[N-Benzyl-N-(4-phenoxybenzyl)aminocarbonyl]cyclobutane-2,3,4-tricarboxylic acid]",–
21,–,"O=C(OCc1ccccc1)[C@@H]1[C@H](C(=O)O)[C@@H](C(=O)OCc2ccccc2)[C@H]1C(=O)N(Cc1ccc(Oc2ccccc2)cc1)Cc1cccs1 (relative stereo) [Example 5, (1α,2β,3β,4α)-1-[N-(Thien-2-ylmethyl)-N-(4-phenoxybenzyl)aminocarbonyl]-2,4-di(benzyloxycarbonyl)cyclobutane-3-carboxylic acid]",–
89,–,"O=C(O)[C@@H]1[C@H](C(=O)O)[C@@H](C(=O)O)[C@H]1C(=O)N(Cc1ccc(Oc2ccccc2)cc1)Cc1cccs1 (relative stereo) [Example 6, (1α,2β,3β,4α)-1-[N-(Thien-2-ylmethyl)-N-(4-phenoxybenzyl)aminocarbonyl]cyclobutane-2,3,4-tricarboxylic acid]",–
79,–,"COC(=O)[C@H]1[C@@H](C(=O)O)[C@H](C(=O)N(Cc2ccccc2)Cc2ccc(Oc3ccccc3)cc2)[C@@H]1C(=O)O (relative stereo) [Example 8, (1α,2β,3β,4α)-1-[N-Benzyl-N-(4-phenoxybenzyl)aminocarbonyl]-3-(methyloxycarbonyl)cyclobutane-2,4-dicarboxylic acid]",–
–,94,"CC(NC(=O)[C@H]1C[C@H](C(=O)O)[C@H]1C(=O)O)C(Cc1ccc(Cl)cc1)c1ccc(-c2ccccc2)cc1 (relative stereo) [Example 34, (1β,2α,3α)-3-[N-{(2S,3R)-4-(4-chlorophenyl)-3-(4-biphenylyl)-2-butyl}aminocarbonyl]cyclobutane-1,2-dicarboxylic acid]",–
–,47,"O=C(O)[C@H]1[C@H](C(=O)O)[C@H](C(=O)O)[C@H]1C(=O)N(CCCCCCCCCCc1ccccc1)Cc1ccccc1 (relative stereo) [Example 35, (1β,2β,3α,4α)-4-[N-Benzyl-N-(10-phenyldecyl)aminocarbonyl]cyclobutane-1,2,3-tricarboxylic acid]",–
–,53,O=C(O)[C@H]1[C@H](C(=O)O)[C@H](C(=O)O)[C@H]1C(=O)N(Cc1ccc(Oc2ccccc2)cc1)Cc1ccc(Cl)c(Cl)c1 (relative stereo) [Example 46],–
92,–,"CC(Cc1ccccc1)C(O)CCCN(Cc1ccccc1)C(=O)C1C(C(=O)O)C(C(=O)O)C1C(=O)O (stereo not drawn) [Example 1, (1α,2β,3β,4α)-1-[N-Benzyl-N-{(4S*,5S*)-(4-hydroxy-5-methyl)-6-phenylhexyl}aminocarbonyl]cyclobutane-2,3,4-tricarboxylic acid]",–
–,98,"COC(=O)[C@@H]1[C@H](C(=O)O)[C@@H](C(=O)O)[C@H]1C(=O)N[C@@H](C)[C@@H](Cc1ccc(Cl)c(Cl)c1)OC(=O)c1ccc2ccccc2c1 [Example 23, (1S,2R,3S,4R)-3-Methoxycarbonyl-4-[N-{(2S,3R)-4-(3,4-dichlorophenyl)-3-(2-naphthoyloxy)-2-butyl}aminocarbonyl]cyclobutane-1,2-dicarboxylic acid]",–
–,27,COC(=O)[C@H]1[C@@H](C(=O)O)[C@H](C(=O)O)[C@@H]1C(=O)N[C@@H](C)[C@@H](Cc1ccc(Cl)c(Cl)c1)OC(=O)c1ccc2ccccc2c1 [Example 24],–
–,35,"C[C@H](NC(=O)[C@H]1[C@H](C(=O)O)[C@H](C(=O)O)[C@H]1C(=O)O)[C@@H](Cc1ccc(Cl)c(Cl)c1)OC(=O)c1ccc2ccccc2c1 [Example 25, (1S,2S,3S,4R)-4-[N-{(2S,3R)-4-(3,4-Dichlorophenyl)-3-(2-naphthoyloxy)-2-butyl}aminocarbonyl]cyclobutane-1,2,3-tricarboxylic acid]",–
–,52,"C[C@H](NC(=O)[C@H]1[C@@H](C(=O)O)[C@H](C(=O)O)[C@@H]1C(=O)O)[C@@H](Cc1ccc(Cl)c(Cl)c1)OC(=O)c1ccc2ccccc2c1 [Example 26, (1R,2R,3R,4S)-4-[N-{(2S,3R)-4-(3,4-Dichlorophenyl)-3-(2-naphthoyloxy)-2-butyl}aminocarbonyl]cyclobutane-1,2,3-tricarboxylic acid]",–
–,98,"COC(=O)[C@@H]1[C@@H](C(=O)O)[C@@H](C(=O)O)[C@@H]1C(=O)N[C@@H](C)[C@@H](Cc1ccc(Cl)c(Cl)c1)OC(=O)c1ccc2ccccc2c1 [Example 27, (1S,2S,3S,4S)-3-Methoxycarbonyl-4-[N-{(2S,3R)-4-(3,4-dichlorophenyl)-3-(2-naphthoyloxy)-2-butyl}aminocarbonyl]cyclobutane-1,2-dicarboxylic acid]",–
–,–,"CC(NC(=O)C1C(C(=O)O)C(C(=O)O)C1C(=O)O)C(Cc1ccc(Cl)cc1)c1ccc(-c2ccccc2)cc1 [Example 29, (1α,2α,3α,4α)-4-[N-{(2S,3R)-4-(4-chlorophenyl)-3-(4-biphenylyl)-2-butyl}aminocarbonyl]cyclobutane-1,2,3-tricarboxylic acid]",inhibition at 0.15 µM [3]: 81%
–,90,"C[C@H](NC(=O)C1CCC1C(=O)O)[C@H](Cc1ccc(Cl)cc1)c1ccc(-c2ccccc2)cc1 (stereo partly drawn) [Example 37, 2-[N-{(2S,3R)-4-(4-Chlorophenyl)-3-(4-biphenylyl)-2-butyl}aminocarbonyl]cyclobutane-1-carboxylic acid]",–
–,63,"CCCN(CCCC(OC(=O)c1ccc2ccccc2c1)C(C)Cc1ccccc1)C(=O)C1C(C(=O)O)C(C(=O)O)C1C(=O)O (stereo not drawn) [Example 43, (1α,2β,3β,4α)-4-{N-Propyl-N-[(4S*,5S*)-(5-methyl-4-napthoyloxy)-6-phenylhexyl]aminocarbonyl}cyclobutane-1,2,3-tricarboxylic acid]",–
–,25,"CCCN(CCCC=CC(C)CCCc1ccccc1)C(=O)C1C(C(=O)O)C(C(=O)O)C1C(=O)O [Example 44, (1α,2α,3β,4β)-4-{N-Propyl-N-[(R)-6-methyl-9-phenyl-(E)-4-nonenyl]aminocarbonyl}cyclobutane-1,2,3-tricarboxylic acid]",–
–,67,"CC(C=CCCCN(Cc1ccccc1)C(=O)C1C(C(=O)O)C(C(=O)O)C1C(=O)O)CCCc1ccccc1 [Example 45, (1α,2α,3β,4β)-4-{N-Benzyl-N-[(R)-6-methyl-9-phenyl-(E)-4-nonenyl]aminocarbonyl}cyclobutane-1,2,3-tricarboxylic acid]",–

# Source: patent US5831115A, “Inhibitors of squalene synthase and protein farnesyltransferase” (Abbott Laboratories, priority 1996, dated 1998)
